In patent US20250333405A1, “ANTAGONISTS OF GPR39 PROTEIN” (VASOCARDEA, INC., priority 2024, published 2025) one finds Ki data, which are given here for 29 compounds.

Where a name gives a salt, the structure may show the parent alone.

The target in this experiment is T1, human GPR39 receptor (Homo sapiens, UniProt O43194).
T1 construct: PC3 Cells, Expressing the Endogenous Human GPR39 Receptor; endogenous in cells; host or cells: PC3 (human prostate adenocarcinoma) cells
T1 sequence (O43194 1-453): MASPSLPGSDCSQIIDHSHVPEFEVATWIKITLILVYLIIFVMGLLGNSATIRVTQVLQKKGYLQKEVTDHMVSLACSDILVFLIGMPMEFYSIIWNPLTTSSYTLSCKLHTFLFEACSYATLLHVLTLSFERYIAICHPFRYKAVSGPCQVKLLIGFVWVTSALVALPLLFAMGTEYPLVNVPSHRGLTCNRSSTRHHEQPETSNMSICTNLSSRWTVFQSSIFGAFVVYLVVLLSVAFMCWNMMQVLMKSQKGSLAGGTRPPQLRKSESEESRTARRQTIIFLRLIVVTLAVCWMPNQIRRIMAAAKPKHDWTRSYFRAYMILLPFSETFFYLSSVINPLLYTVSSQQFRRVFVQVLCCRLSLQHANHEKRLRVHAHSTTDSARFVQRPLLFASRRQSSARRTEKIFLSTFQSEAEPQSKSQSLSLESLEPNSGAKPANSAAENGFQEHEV
Put plainly: Intracellular calcium response (FLIPR, Calcium-6) in PC3 cells, antagonism of agonist C3 (TC-G 1008) at EC90. The experiment is classed as cell-based. The settings on record: functional pKi (-Log10Ki) by modified Cheng-Prusoff from IC50; PC3 cells endogenously expressing human GPR39; 30 μM ZnCl2; agonist C3 (TC-G 1008) at EC90 1.5 μM; read-out: fpKi activity. A digest of the protocol:
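Calcium-6-loaded cells in HEPES buffer pH 7.4 were given compound with 30 μM final ZnCl2 (0.32% DMSO) for 10 min, then challenged with 1.5 μM C3. Baseline-subtracted peak fluorescence expressed as % inhibition of the C3 response; IC50 from four-parameter logistic fit, reported as binned fpKi.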
On the technique in general: Calcium flux is commonly read through the fluorescence of an indicator in the cells.
On to `Cn1ccc(-c2cc(NC(=O)C3CC3)ccc2C(=O)N2CCC(F)(F)CC2)n1` [Example 22, N-[4-(4,4-difluoropiperidine-1-carbonyl)-3-(1-methylpyrazol-3-yl)phenyl]cyclopropanecarboxamide], for which the Ki was 63.1 to 251 nM.

As to `CCn1nccc1-c1cc(-c2nnc(C)[nH]2)ccc1C(=O)N1CCC(F)(F)CC1` [Example 44, (4,4-difluoropiperidin-1-yl)-[2-(2-ethylpyrazol-3-yl)-4-(5-methyl-4H-1,2,4-triazol-3-yl)phenyl]methanone], the Ki was in the range of 1260 to 6310 nM.

In the case of `CN(C1CCN(C(=O)c2ccc(NC(=O)C3CC3)cc2N2CCCC2)CC1)S(C)(=O)=O` [Example 104, N-[4-[4-[methyl(methylsulfonyl)amino]piperidine-1-carbonyl]-3-pyrrolidin-1-ylphenyl]cyclopropanecarboxamide], the Ki is 1260 to 6310 nM.

Take `Cc1nnc(-c2ccc(C(=O)N3CCC(F)(F)CC3)c(-c3nccc(C(F)(F)F)n3)c2)[nH]1` [Example 77, (4,4-difluoro-1-piperidyl)-[4-(5-methyl-4H-1,2,4-triazol-3-yl)-2-[4-(trifluoromethyl)pyrimidin-2-yl]phenyl]methanone]: the Ki is not above 50.1 nM.

In the case of `Cc1nnc(-c2ccc(C(=O)N3CCC(C)CC3)c(-c3ccn(C(C)C)n3)c2)[nH]1` [Example 61, (4-methylpiperidin-1-yl)-[4-(5-methyl-4H-1,2,4-triazol-3-yl)-2-(1-propan-2-ylpyrazol-3-yl)phenyl]methanone], the Ki is not above 50.1 nM.

Regarding `Cc1nnc(-c2ccc(C(=O)N3CCC4(CC3)CC4)c(-c3cnn(C(C)C)c3)c2)[nH]1` [Example 49, 6-azaspiro[2.5]octan-6-yl-[4-(5-methyl-4H-1,2,4-triazol-3-yl)-2-(1-propan-2-ylpyrazol-4-yl)phenyl]methanone], the Ki was in the range of 316 to 1000 nM.

For `Cc1cc(C(=O)N2CCN(C)CC2c2ccccc2)c(N2CCCC2)cc1NC(=O)C1CC1` (centres unmarked) [Example 92, N-[2-methyl-4-(4-methyl-2-phenylpiperazine-1-carbonyl)-5-pyrrolidin-1-ylphenyl]cyclopropanecarboxamide], the Ki is more than 6310 nM.

For the compound `Cc1nnc(-c2ccc(C(=O)N3CCC(F)(F)CC3)c(-n3ccc(C(C)(C)C)n3)c2)[nH]1` [Example 122, [2-(3-tert-butylpyrazol-1-yl)-4-(5-methyl-4H-1,2,4-triazol-3-yl)phenyl]-(4,4-difluoropiperidin-1-yl)methanone], the Ki was not above 50.1 nM.

In the case of `Cc1cnc(-c2ccc(C(=O)N3CCC(F)(F)CC3)c(-c3ccn(C(C)C)n3)c2)[nH]1` [Example 87, (4,4-difluoro-1-piperidyl)-[2-(1-isopropylpyrazol-3-yl)-4-(5-methyl-1H-imidazol-2-yl)phenyl]methanone], the Ki was 63.1 to 251 nM.

In the case of `Cc1nnc(-c2ccc(C(=O)N3CCC(F)(F)CC3)c(-c3cccc(C(C)(C)C)n3)c2)[nH]1` [Example 79, [2-(6-tert-butyl-2-pyridyl)-4-(5-methyl-4H-1,2,4-triazol-3-yl)phenyl]-(4,4-difluoro-1-piperidyl)methanone], the Ki is not above 50.1 nM.

In the case of `O=C(Nc1ccc(C(=O)N2CC3CCC(C2)O3)c(N2CCCC2)c1)C1CC1` [Example 6, N-[4-(8-oxa-3-azabicyclo[3.2.1]octane-3-carbonyl)-3-pyrrolidin-1-ylphenyl]cyclopropanecarboxamide], the Ki was 316 to 1000 nM.

Regarding `O=C(Nc1ccc(C(=O)N2C3CCC2COC3)c(N2CCCC2)c1)C1CC1` [Example 7, N-[4-(3-oxa-8-azabicyclo[3.2.1]octane-8-carbonyl)-3-pyrrolidin-1-ylphenyl]cyclopropanecarboxamide], the Ki lay in the range of 1260 to 6310 nM.

Consider `CC(C)(C)c1ccn(-c2cc(NC(=O)C3CC3)ccc2C(=O)N2CCS(=O)(=O)CC2)n1` [Example 118, N-[3-(3-tert-butylpyrazol-1-yl)-4-(1,1-dioxo-1,4-thiazinane-4-carbonyl)phenyl]cyclopropanecarboxamide], for which the Ki was not above 50.1 nM.

Regarding `CN1CCN(C(=O)c2ccc(NC(=O)C3CC3)cc2-c2ccc(C(F)(F)F)s2)C(c2ccccc2)C1` (racemic) [Example 33, N-[4-(4-methyl-2-phenylpiperazine-1-carbonyl)-3-[5-(trifluoromethyl)thiophen-2-yl]phenyl]cyclopropanecarboxamide], the Ki was more than 6310 nM.

For the compound `O=C(Nc1ccc(C(=O)N2CC3CC(C2)O3)c(N2CCCC2)c1)C1CC1` [Example 8, N-[4-(6-oxa-3-azabicyclo[3.1.1]heptane-3-carbonyl)-3-pyrrolidin-1-ylphenyl]cyclopropanecarboxamide], the Ki fell in the range of 1260 to 6310 nM.

In the case of `O=C(Nc1ccc(C(=O)N2CCS(=O)(=O)CC2)c(C2=CCCC2)c1)C1CC1` [Example 88, N-[3-(cyclopenten-1-yl)-4-(1,1-dioxo-1,4-thiazinane-4-carbonyl)phenyl]cyclopropanecarboxamide], the Ki lay in the range of 316 to 1000 nM.

Consider `Cc1nnc(-c2ccc(C(=O)N3CCC(C)(F)CC3)c(-c3cccc(C4CC4)n3)c2)[nH]1` [Example 65, [2-(6-cyclopropyl-2-pyridyl)-4-(5-methyl-4H-1,2,4-triazol-3-yl)phenyl]-(4-fluoro-4-methyl-1-piperidyl)methanone], for which the Ki was not above 50.1 nM.

Turning to `Cc1nc2cc(N3CCCC3)c(C(=O)N3CCN(C)CC3c3ccccc3)cc2[nH]1` (centres unmarked) [Example 114, (4-methyl-2-phenylpiperazin-1-yl)-(2-methyl-6-pyrrolidin-1-yl-3H-benzimidazol-5-yl)methanone], the Ki was more than 6310 nM.

Regarding `CCOC1CCN(C(=O)c2ccc(-c3nnc(C)[nH]3)cc2-c2ccn(C(C)C)n2)CC1` [Example 42, (4-ethoxy-1-piperidyl)-[2-(1-isopropylpyrazol-3-yl)-4-(5-methyl-4H-1,2,4-triazol-3-yl)phenyl]methanone], the Ki is not above 50.1 nM.

Take `O=C(Nc1ccc(C(=O)N2CCS(=O)(=O)CC2)c(N2CCCC2=O)c1)C1CC1` [Example 123, N-[4-(1,1-dioxo-1,4-thiazinane-4-carbonyl)-3-(2-oxopyrrolidin-1-yl)phenyl]cyclopropanecarboxamide]: the Ki is more than 6310 nM.

With `CC(C)n1ccc(-c2cc(NC(=O)C3CC3)ccc2C(=O)N2CCS(=O)(=O)CC2)n1` [Example 28, N-[4-(1,1-dioxo-1,4-thiazinane-4-carbonyl)-3-(1-propan-2-ylpyrazol-3-yl)phenyl]cyclopropanecarboxamide], the Ki was not above 50.1 nM.

With `Cc1nnc(-c2ccc(C(=O)N3CCC(C(C)(C)C)CC3)c(-c3ccn(C(C)C)n3)c2)[nH]1` [Example 40, (4-tert-butyl-1-piperidyl)-[2-(1-isopropylpyrazol-3-yl)-4-(5-methyl-4H-1,2,4-triazol-3-yl)phenyl]methanone], the Ki fell in the range of 63.1 to 251 nM.

Regarding `Cc1nnc(-c2ccc(C(=O)N3CCC(C(F)(F)F)CC3)c(-c3nc(C4CC4)cs3)c2)[nH]1` [Example 69, [2-(4-cyclopropylthiazol-2-yl)-4-(5-methyl-4H-1,2,4-triazol-3-yl)phenyl]-[4-(trifluoromethyl)-1-piperidyl]methanone], the Ki is not above 50.1 nM.

Consider `Cc1cc(C(F)(F)F)nc(-c2cc(-c3nnc(C)[nH]3)ccc2C(=O)N2CCC(C(F)(F)F)CC2)n1` [Example 68, [4-(5-methyl-4H-1,2,4-triazol-3-yl)-2-[4-methyl-6-(trifluoromethyl)pyrimidin-2-yl]phenyl]-[4-(trifluoromethyl)-1-piperidyl]methanone], for which the Ki is not above 50.1 nM.

As for `CC1CN(C(=O)c2ccc(NC(=O)C3CC3)cc2N2CCCC2)CC(C)S1(=O)=O` (centres unmarked) [Example 5, N-[4-(2,6-dimethyl-1,1-dioxo-1,4-thiazinane-4-carbonyl)-3-pyrrolidin-1-ylphenyl]cyclopropanecarboxamide], the Ki was more than 6310 nM.

Consider `Cc1cc(Cl)cc(C2CN(C)CCN2C(=O)c2ccc(NC(=O)C3CC3)cc2N2CCCC2)c1` (racemic) [Example 110, N-[4-[2-(3-chloro-5-methylphenyl)-4-methylpiperazine-1-carbonyl]-3-pyrrolidin-1-ylphenyl]cyclopropanecarboxamide], for which the Ki is not above 50.1 nM.

With `Cc1ccc(-c2cc(NC(=O)C3CC3)ccc2C(=O)N2CCN(C)CC2c2ccccc2)s1` (racemic) [Example 34, N-[4-(4-methyl-2-phenylpiperazine-1-carbonyl)-3-(5-methylthiophen-2-yl)phenyl]cyclopropanecarboxamide], the Ki was in the range of 63.1 to 251 nM.

Take `Cc1nnc(-c2ccc(C(=O)N3CCC(F)(F)CC3)c(-c3nc(C(F)(F)F)cs3)c2)[nH]1` [Example 76, (4,4-difluoro-1-piperidyl)-[4-(5-methyl-4H-1,2,4-triazol-3-yl)-2-[4-(trifluoromethyl)thiazol-2-yl]phenyl]methanone]: the Ki was not above 50.1 nM.

`Cc1cc(Cl)cc(C2CN(C)CCN2C(=O)c2ccc(NC(=O)C3CC3)cc2N2CCCC2)c1` (single isomer, unassigned) [Example 110a, N-[4-[2S or 2R-(3-chloro-5-methylphenyl)-4-methylpiperazine-1-carbonyl]-3-pyrrolidin-1-ylphenyl]cyclopropanecarboxamide hydrochloride]: the Ki was not above 50.1 nM.
